According to patent US11660301B2, “Combination of ATR kinase inhibitors with PARP inhibitors” (Bayer Pharma Aktiengesellschaft, priority 2017, dated 2023):
Marks after values point to notes of the source that are not given here.

Assays:
[1] = system: MDA-MB-436; assay: In vitro anti-proliferation (Cell Titre-Glo), MDA-MB-436; format: cell-based; details: Homo sapiens; MDA-MB-436, breast; 96 hours of incubation; mono-treatment
Procedure: (§1) Tumor cells (Table 1) were propagated in a humidified 37° C. incubator in their respective growth medium supplemented 10% fetal calf serum. […] Test compounds were added to the wells using a Tecan-HP Digital Dispenser. After 96 hours of incubation cell viability was assessed with the Cell Titre-Glo Luminescent Cell Viability Assay (Promega).

[2] = system: IGR-OV-1; assay: In vitro anti-proliferation (Cell Titre-Glo), IGR-OV-1; format: cell-based; details: Homo sapiens, IGROV-1; IGR-OV-1, ovary; 96 hours of incubation; mono-treatment
Procedure: as §1

[3] = system: HT-144; assay: In vitro anti-proliferation (Cell Titre-Glo), HT-144; format: cell-based; details: Homo sapiens; HT-144, melanoma; 96 hours of incubation; mono-treatment
Procedure: as §1

[4] = system: NCI-H460; assay: In vitro anti-proliferation (Cell Titre-Glo), NCI-H460; format: cell-based; details: Homo sapiens; NCI-H460, lung; 96 hours of incubation; mono-treatment
Procedure: as §1

[5] = system: human 22Rv1 prostate cancer xenograft; assay: 22Rv1 prostate cancer xenograft model; format: in vivo, mice
Procedure: (§2) The oral and intraperitoneal application volume was 10 ml/kg. The time interval between two applications per day was 6-7 h. […] Changes in the body weight were a measure of treatment-related toxicity (>10%=critical, stop of treatment until recovery, >20%=toxic, termination). The tumor area was detected by means of an electronic caliper gauge [length (mm)×width (mm)]. In vivo anti-tumor efficacy is presented as T/C ratio (Treatment/Control) calculated with tumor areas at study end by the formula [(tumor area of treatment group at day x)−(tumor area of treatment group at day before first treatment)]/[(tumor area control group at day x)−(tumor area of control group at day before first treatment)]. […] Statistical analysis was assessed using SigmaStat software. A one-way analysis of variance was performed and differences to the control were compared by a pair-wise comparison procedure (Dunn's method).

[6] = system: human MDA-MB-436 breast cancer xenograft; assay: MDA-MB-436 breast cancer xenograft model; format: in vivo, mice
Procedure: as §2

IC50 [1]: 6.5 µM
IC50 [3]: 23 µM
IC50 [4]: 28 µM
SMILES: O=C(c1cc(Cc2n[nH]c(=O)c3ccccc23)ccc1F)N1CCN(C(=O)C2CC2)CC1 [Compound B, Olaparib]
IC50 [2]: 22 µM
anti-tumor efficacy ([5]; 22Rv1 prostate cancer model, result in words): no anti-tumor efficacy
Max. weight loss (%) ([5]; body weight vs start of treatment, Compound A 20 mg/kg 2QD p.o. 3 on/4 off, Compound B 20 mg/kg QD i.p.): −3%
T/C ([5]; tumor area at study end, male Fox Chase SCID mice, Compound A 20 mg/kg 2QD p.o. 3 on/4 off, Compound B 20 mg/kg QD i.p.): 1.18
anti-tumor efficacy ([6]; MDA-MB-436 human breast cancer model, result in words): good anti-tumor efficacy
Max. weight loss (%) ([6]; body weight vs start of treatment, Compound A 20 mg/kg 2QD p.o. 3 on/4 off, Compound B 50 mg/kg QD i.p.): −3%
T/C ([6]; tumor area at study end, NOD/Scid mice, Compound A 20 mg/kg 2QD p.o. 3 on/4 off, Compound B 50 mg/kg QD i.p.): 0.29^*
